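Grown in 96-well plates, cells were treated for 48 hours with each compound at five concentrations. Insufficient inhibition: endpoint recorded as highest concentration tested. Definition used: TGI = concentration required for complete inhibition of growth.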
Tests used:
Test in all cases: inhibition of tumour cell growth, NCI panel, 48 h
786-0 renal = system: 786-0 renal
A549 NSCLC = system: A549 NSCLC
ACHN renal = system: ACHN renal
BT-549 breast = system: BT-549 breast
CAKI-1 renal = system: CAKI-1 renal
CCRF-CEM leukemia = system: CCRF-CEM leukemia
COLO 205 colon = system: COLO 205 colon
DU-145 prostate = system: DU-145 prostate
EKVX NSCLC = system: EKVX NSCLC
HCC-2998 colon = system: HCC-2998 colon
HCT-116 colon = system: HCT-116 colon
HCT-15 colon = system: HCT-15 colon
HL-60(TB) leukemia = system: HL-60(TB) leukemia
HOP-62 NSCLC = system: HOP-62 NSCLC
HOP-92 NSCLC = system: HOP-92 NSCLC
HS 578T breast = system: HS 578T breast
HT29 colon = system: HT29 colon
IGROV1 ovarian = system: IGROV1 ovarian
K-562 leukemia = system: K-562 leukemia
KM12 colon = system: KM12 colon
LOX IMVI melanoma = system: LOX IMVI melanoma
M14 melanoma = system: M14 melanoma
MALME-3M melanoma = system: MALME-3M melanoma
MCF7 breast = system: MCF7 breast
MDA-MB-231 breast = system: MDA-MB-231 breast
MDA-MB-435 = system: MDA-MB-435
MDA-N = system: MDA-N
MOLT-4 leukemia = system: MOLT-4 leukemia
NCI-H226 lung = system: NCI-H226 lung
NCI-H23 lung = system: NCI-H23 lung
NCI-H460 lung = system: NCI-H460 lung
NCI-H522 lung = system: NCI-H522 lung
NCI/ADR-RES ovarian = system: NCI/ADR-RES ovarian
OVCAR-3 ovarian = system: OVCAR-3 ovarian
OVCAR-4 ovarian = system: OVCAR-4 ovarian
OVCAR-5 ovarian = system: OVCAR-5 ovarian
OVCAR-8 ovarian = system: OVCAR-8 ovarian
PC-3 prostate = system: PC-3 prostate
RPMI-8226 leukemia = system: RPMI-8226 leukemia
RXF 393 renal = system: RXF 393 renal
SF-268 CNS = system: SF-268 CNS
SF-295 CNS = system: SF-295 CNS
SF-539 CNS = system: SF-539 CNS
SK-MEL-2 melanoma = system: SK-MEL-2 melanoma
SK-MEL-28 melanoma = system: SK-MEL-28 melanoma
SK-MEL-5 melanoma = system: SK-MEL-5 melanoma
SK-OV-3 ovarian = system: SK-OV-3 ovarian
SN12C renal = system: SN12C renal
SNB-19 CNS = system: SNB-19 CNS
SNB-75 CNS = system: SNB-75 CNS
SR leukemia = system: SR leukemia
SW-620 colon = system: SW-620 colon
T-47D breast = system: T-47D breast
TK-10 renal = system: TK-10 renal
U251 CNS = system: U251 CNS
UACC-257 melanoma = system: UACC-257 melanoma
UACC-62 melanoma = system: UACC-62 melanoma
UO-31 renal = system: UO-31 renal
A498 renal = system: A498 renal

Structure (SMILES): COc1ccc(OC)c(Cc2cnc3nc(N)nc(N)c3c2C)c1
- TGI (786-0 renal): 30.2 µM
- TGI (A549 NSCLC): 36.9 µM
- TGI (ACHN renal): 20.1 µM
- TGI (BT-549 breast): 43.8 µM
- TGI (CAKI-1 renal): > 81.9 µM
- TGI (CCRF-CEM leukemia): 29.4 µM
- TGI (COLO 205 colon): > 52.6 µM
- TGI (DU-145 prostate): > 59.8 µM
- TGI (EKVX NSCLC): > 83.3 µM
- TGI (HCC-2998 colon): 16.4 µM
- TGI (HCT-116 colon): 30.4 µM
- TGI (HCT-15 colon): 11.4 µM
- TGI (HL-60(TB) leukemia): 18.7 µM
- TGI (HOP-62 NSCLC): 17.3 µM
- TGI (HOP-92 NSCLC): 39.6 µM
- TGI (HS 578T breast): 49.7 µM
- TGI (HT29 colon): 20 µM
- TGI (IGROV1 ovarian): 2.61 µM
- TGI (K-562 leukemia): 14.9 µM
- TGI (KM12 colon): 20.7 µM
- TGI (LOX IMVI melanoma): 25.6 µM
- TGI (M14 melanoma): > 41.9 µM
- TGI (MALME-3M melanoma): 13.7 µM
- TGI (MCF7 breast): 28.6 µM
- TGI (MDA-MB-231 breast): 33.8 µM
- TGI (MDA-MB-435): > 49 µM
- TGI (MDA-N): > 57.7 µM
- TGI (MOLT-4 leukemia): 23.5 µM
- TGI (NCI-H226 lung): 33.3 µM
- TGI (NCI-H23 lung): > 50.1 µM
- TGI (NCI-H460 lung): 12.2 µM
- TGI (NCI-H522 lung): 21.8 µM
- TGI (NCI/ADR-RES ovarian): > 100 µM
- TGI (OVCAR-3 ovarian): 10.9 µM
- TGI (OVCAR-4 ovarian): 28.8 µM
- TGI (OVCAR-5 ovarian): 48.1 µM
- TGI (OVCAR-8 ovarian): 27.8 µM
- TGI (PC-3 prostate): 27.7 µM
- TGI (RPMI-8226 leukemia): 15.8 µM
- TGI (RXF 393 renal): 21.9 µM
- TGI (SF-268 CNS): > 71.2 µM
- TGI (SF-295 CNS): 41.9 µM
- TGI (SF-539 CNS): 20.3 µM
- TGI (SK-MEL-2 melanoma): 27.9 µM
- TGI (SK-MEL-28 melanoma): > 51 µM
- TGI (SK-MEL-5 melanoma): 93.8 µM
- TGI (SK-OV-3 ovarian): 27.2 µM
- TGI (SN12C renal): 33.6 µM
- TGI (SNB-19 CNS): 55.4 µM
- TGI (SNB-75 CNS): 21.3 µM
- TGI (SR leukemia): 21.7 µM
- TGI (SW-620 colon): > 45.1 µM
- TGI (T-47D breast): 47.2 µM
- TGI (TK-10 renal): > 84.7 µM
- TGI (U251 CNS): > 44.1 µM
- TGI (UACC-257 melanoma): 47.4 µM
- TGI (UACC-62 melanoma): > 71.2 µM
- TGI (UO-31 renal): 27.7 µM

Structure (SMILES): c1cncc(CSc2ncnc3nc[nH]c23)c1
- TGI (786-0 renal): > 100 µM
- TGI (A498 renal): > 100 µM
- TGI (A549 NSCLC): > 100 µM
- TGI (ACHN renal): > 100 µM
- TGI (BT-549 breast): > 100 µM
- TGI (CAKI-1 renal): > 100 µM
- TGI (CCRF-CEM leukemia): > 100 µM
- TGI (COLO 205 colon): > 100 µM
- TGI (DU-145 prostate): > 100 µM
- TGI (EKVX NSCLC): > 100 µM
- TGI (HCC-2998 colon): > 100 µM
- TGI (HCT-116 colon): > 100 µM
- TGI (HCT-15 colon): > 100 µM
- TGI (HL-60(TB) leukemia): > 100 µM
- TGI (HOP-62 NSCLC): > 100 µM
- TGI (HOP-92 NSCLC): > 100 µM
- TGI (HS 578T breast): > 100 µM
- TGI (HT29 colon): > 100 µM
- TGI (IGROV1 ovarian): > 100 µM
- TGI (K-562 leukemia): > 100 µM
- TGI (KM12 colon): > 100 µM
- TGI (LOX IMVI melanoma): > 100 µM
- TGI (M14 melanoma): > 100 µM
- TGI (MALME-3M melanoma): > 100 µM
- TGI (MCF7 breast): > 100 µM
- TGI (MDA-MB-231 breast): > 100 µM
- TGI (MDA-MB-435): > 100 µM
- TGI (MDA-N): > 100 µM
- TGI (MOLT-4 leukemia): > 100 µM
- TGI (NCI-H226 lung): > 100 µM
- TGI (NCI-H23 lung): > 100 µM
- TGI (NCI-H460 lung): > 100 µM
- TGI (NCI-H522 lung): > 100 µM
- TGI (NCI/ADR-RES ovarian): > 100 µM
- TGI (OVCAR-3 ovarian): > 100 µM
- TGI (OVCAR-4 ovarian): > 100 µM
- TGI (OVCAR-5 ovarian): > 100 µM
- TGI (OVCAR-8 ovarian): > 100 µM
- TGI (PC-3 prostate): > 100 µM
- TGI (RXF 393 renal): > 100 µM
- TGI (SF-268 CNS): > 100 µM
- TGI (SF-295 CNS): > 100 µM
- TGI (SK-MEL-2 melanoma): > 100 µM
- TGI (SK-MEL-28 melanoma): > 100 µM
- TGI (SK-MEL-5 melanoma): > 100 µM
- TGI (SK-OV-3 ovarian): > 100 µM
- TGI (SN12C renal): > 100 µM
- TGI (SNB-19 CNS): > 100 µM
- TGI (SNB-75 CNS): > 100 µM
- TGI (SR leukemia): > 100 µM
- TGI (SW-620 colon): > 100 µM
- TGI (T-47D breast): > 100 µM
- TGI (TK-10 renal): > 100 µM
- TGI (U251 CNS): > 100 µM
- TGI (UACC-257 melanoma): > 100 µM
- TGI (UACC-62 melanoma): > 100 µM
- TGI (UO-31 renal): > 100 µM

— PubChem BioAssay (NCI)
